Assay results taken from patent US20260234165A1, “MACROCYCLIC COMPOUNDS, PREPARATION METHOD THEREFOR, AND USE THEREOF” (GENFLEET THERAPEUTICS (SHANGHAI) INC., priority 2004, published 2026).
Where a name gives a salt, the structure may show the parent alone. Read-outs that look alike come from different tables or passages of the source.

Tests used:
Format in all cases: cell-based, human
[1] = test system: p-ERK in AsPC-1 cells (KRAS G12D mutation); experiment: Cell p-ERK assay (HTRF) in AsPC-1 cells; conditions: AsPC-1 cells, 3 h compound incubation, HTRF p-ERK T202/Y204, read-out: AsPC-1 p-ERK IC50
How it was run: (§1)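 AsPC-1 (10000/well) or NCI-H441 (20000/well) cells were seeded overnight, then treated 3 h at 37° C. with 3.16-fold compound dilutions (0.1% DMSO final). Lysates were probed 4 h for phospho-ERK T202/Y204 by HTRF; inhibition versus DMSO and blank wells gave IC50 from four-parameter fits.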

[2] = test system: AsPC-1 cells (KRAS G12D mutation); experiment: 3D cell proliferation assay (CellTiter Glo-3D), AsPC-1; conditions: medium with 2% FBS, read-out: AsPC-1 AP IC50
How it was run: (§2)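 Luminescent CellTiter-Glo 3D readout after 5-day compound exposure (3.16-fold series, 0.1% DMSO, 2% FBS medium) at 37°C on 800 cells/well plated the day before; IC50 from four-parameter curve of inhibition relative to DMSO and blank wells.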

[3] = test system: p-ERK in NCI-H441 cells (KRAS G12V mutation); experiment: Cell p-ERK assay (HTRF) in NCI-H441 cells; conditions: NCI-H441 cells, 3 h compound incubation, HTRF p-ERK T202/Y204, read-out: H441 p-ERK IC50
How it was run: as §1

[4] = test system: NCI-H441 cells; experiment: 3D cell proliferation assay (CellTiter Glo-3D), NCI-H441; conditions: medium with 2% FBS, read-out: H441 AP IC50
How it was run: as §2

[5] = 3D cell proliferation (CellTiter Glo-3D)
[6] = Homo sapiens, ASPC1, 3D cell proliferation (CellTiter Glo-3D)
[7] = Homo sapiens, NCI-H441, 3D cell proliferation (CellTiter Glo-3D)

Row | IC50 [1] | IC50 [2, 5] | IC50 [3] | IC50 [4, 5] | IC50 ([1]; Homo sapiens, ASPC1, 3 h) | IC50 [2, 6] | IC50 ([3]; Homo sapiens, NCI-H441, 3 h) | IC50 [4, 7] | Compound
1 | 0.63 nM | 1.63 nM | 0.38 nM | 0.71 nM |  |  |  |  | CCn1c(-c2cc(OCC(C)(C)N3CCS(=O)(=O)CC3)cnc2[C@H](C)OC)c2c3cc(ccc31)-c1csc(n1)C[C@H](NC(=O)[C@H]1[C@H](C)[C@@H]1C)C(=O)N1CCC[C@H](N1)C(=O)OCC(C)(C)C2 (atropisomer, axis not shown; (Ra)) [Compound Z667, (1r,2R,3S)—N-((6^1S,4S,Z)—(Ra)-1^2-(5-(2-(1,1-dioxidothiomorpholino)-2-methylpropoxy)-2-((S)-1-methoxyethyl)pyridin-3-yl)-1^1-ethyl-10,10-dimethyl-5,7-dioxo-6^1,6^2,6^3,6^4,6^5,6^6-hexahydro-1^1H-8-oxa-2(4,2)-thiazola-1(5,3)-indola-6(1,3)-pyridazinacycloundecaphane-4-yl)-2,3-dimethylcyclopropane-1-carboxamide]
2 |  |  |  |  | 96.4 nM | 302 nM | 41.7 nM | 149 nM | CCn1c(-c2cc(N3CCN(C)CC3)cnc2[C@H](C)OC)c2c3cc(ccc31)-c1csc(n1)C[C@H](NC1=NCCO1)C(=O)N1CCC[C@H](N1)C(=O)OCC(C)(C)C2 (atropisomer, axis not shown; (Ra)) [Compound Z71, (6^3S,4S,Z)-1^1-ethyl-(Ra)-1^2-(2-((S)-1-methoxyethyl)-5-(4-methylpiperazin-1-yl)pyridin-3-yl)-10,10-dimethyl-4-((4.5-dihydrooxazol-2-yl)amino)-6^1,6^2,6^3,6^4,6^5,6^6-hexahydro-1^1H-8-oxa-2(4,2)-thiazola-1(5,3)-indola-6(1,3)-pyridazinacycloundecaphane-5,7-dione formate]
3 | 3.03 nM | 15 nM | 1.9 nM | 6.32 nM |  |  |  |  | CCn1c(-c2cc(OCC3(N4CCCOCC4)CC3)cnc2[C@H](C)OC)c2c3cc(ccc31)-c1csc(n1)C[C@H](NC(=O)[C@H]1[C@H](C)[C@@H]1C)C(=O)N1CCC[C@H](N1)C(=O)OCC1(CC1)C2 (atropisomer, axis not shown; (Ra)) [Compound Z464, (1r,2R,3,S)—N-((3′S,4′S,Z)—(Ra)-2′-(5-((1-(1,4-oxazepan-4-yl)cyclopropyl)methoxy)-2-((S)-1-methoxyethyl)pyridin-3-yl)-1′-ethyl-5′,7′-dioxospiro[cyclopropane-1,10′-8-oxa-2(4,2)-thiazola-1(5,3)-indola-6(1,3)-pyridazinacycloundecaphan]-4′-yl)-2,3-dimethylcyclopropane-1-carboxamide]
4 | 0.43 nM | 0.77 nM | 0.75 nM | 0.48 nM |  |  |  |  | CCn1c(-c2cc(OCCN3CCOC4(CC4)C3)cnc2[C@H](C)OC)c2c3cc(ccc31)-c1csc(n1)C[C@H](NC(=O)[C@H]1[C@H](C)[C@@H]1C)C(=O)N1CCC[C@H](N1)C(=O)OCC(C)(C)C2 [Compound Z83, (1r,2R,3S)—N-((6^3R,4R,Z)-1^2-(5-(2-(4-oxa-7-azaspiro[2,5]octan-7-yl)ethoxy)-2-((S)-1-methoxyethyl)pyridin-3-yl)-1′-ethyl-10,10-dimethyl-5,7-dioxo-6^1,6^2,6^3,6^4,6^5,6^6-hexahydro-1^1H-8-oxa-2(4,2)-thiazola-1(5,3)-indola-6(1,3)-pyridazinacycloundecaphane-4-yl)-2,3-dimethylcyclopropane-1-carboxamide]
5 |  |  |  |  | 1.6 nM | 2.72 nM | 1.12 nM | 1.37 nM | CO[C@@H](C)c1ncc(OCCN2CCOC3(CC3)C2)cc1-c1c2c3cc(ccc3n1C(C)C)-c1csc(n1)C[C@H](NC(=O)[C@H]1[C@H](C)[C@@H]1C)C(=O)N1CCC[C@H](N1)C(=O)OCC1(CC1)C2 (atropisomer, axis not shown; (Ra)) [Compound Z462, (1r,2R,3S)—N-((3′S,4′S,Z)-2′-(5-(2-(4-oxa-7-azaspiro[2,5]octan-7-yl)ethoxy)-(Ra)-2-((S)-1-methoxyethyl)pyridin-3-yl)-1′-isopropyl 5′,7′-dioxospiro[cyclopropane-1,10′-8-oxa-2(4,2)-thiazola-1(5,3)-indola-6(1,3)-pyridazinacycloundecaphan]-4′-yl)-2,3-dimethylcyclopropane-1-carboxamide]
6 | 33.8 nM | 38.3 nM | 9.41 nM | 15 nM |  |  |  |  | CCn1c(-c2cc(C#CCN3CCCOCC3)cnc2[C@H](C)OC)c2c3cc(ccc31)-c1csc(n1)C[C@H](NP(=O)(CC)CC)C(=O)N1CCC[C@H](N1)C(=O)OCC(C)(C)C2 (atropisomer, axis not shown; (Ra)) [Compound Z920, N-((6^3S,4S,Z)—(Ra)-1^2-(5-(3-(1,4-oxazepan-4-yl)prop-1-yn-1-yl)-2-((S)-1-methoxyethyl)pyridin-3-yl)-1^1-ethyl-10,10-dimethyl-5,7-dioxo-6^1,6^2,6^3,6^4,6^5,6^6-hexahydro-1^1H-8-oxa-2(4,2)-thiazola-1(5,3)-indola-6(1,3)-pyridazinacycloundecaphane-4-yl)-P,P-diethylphosphoramidite formate]
7 |  |  |  |  | 13.4 nM | 21.1 nM | 4.55 nM | 4.06 nM | CCn1c(-c2cc(N3CCN(C)CC3)cnc2[C@H](C)OC)c2c3cc(ccc31)-c1csc(n1)C[C@H](Nc1nnc3cc(C)ccn13)C(=O)N1CCC[C@H](N1)C(=O)OCC(C)(C)C2 (atropisomer, axis not shown; (Ra)) [Compound Z653, (6^3S,4S,Z)-1^1-ethyl-(Ra)-1^2-(2-((S)-1-methoxyethyl)-5-(4-methylpiperazin-1-yl)pyridin-3-yl)-10,10-dimethyl-4-((7-methyl-[1,2,4]triazolo[4,3-a]pyridin-3-yl)amino)-6^1,6^2,6^3,6^4,6^5,6^6-hexahydro-1^1H-8-oxa-2(4,2)-thiazola-1(5,3)-indola-6(1,3)-pyridazinacycloundecaphane-5,7-dione]
8 | 0.42 nM | 0.43 nM | 0.31 nM | 0.4 nM |  |  |  |  | CCn1c(-c2cc(C#CCN3CC(O)C3)cnc2[C@H](C)OC)c2c3cc(ccc31)-c1csc(n1)C[C@H](NC(=O)[C@H]1[C@H](C)[C@@H]1C)C(=O)N1CCC[C@H](N1)C(=O)OCC(C)(C)C2 [Compound Z1065, (2R,3S)—N-((6^3S,4S,Z)-1^1-ethyl-1^2-(5-(3-(3-hydroxyazetidin-1-yl)prop-1-yn-1-yl)-((S)-1-methoxyethyl)pyridin-3-yl)-10,10-dimethyl-5,7-dioxo-6^1,6^2,6^3,6^4,6^5,6^6-hexahydro-1^1H-8-oxo-2(4,2)-thiazola-1(5,3)-indola-6(1,3)-pyridazinacycloundecaphane-4-yl)-2,3-dimethylcyclopropane-1-carboxamide formate]
9 |  |  |  |  | 3.99 nM | 2.68 nM | 1.58 nM | 0.83 nM | CCn1c(-c2cc(OCCN3CCOC4(CC4)C3)cnc2[C@H](C)OC)c2c3cc(ccc31)-c1csc(n1)C[C@H](NC(=O)[C@@H]1[C@@H](C)[C@H]1c1ccncn1)C(=O)N1CCC[C@H](N1)C(=O)OCC(C)(C)C2 (atropisomer, axis not shown; (Ra)) [Compound Z661-2, (1R,2S,3R)—N-((6^3S,4S,Z)—(Ra)-1^2-(5-(2-(4-oxa-7-azaspiro[2,5]octan-7-yl)ethoxy)-2-((S)-1-methoxyethyl)pyridin-3-yl)-11-ethyl-10,10-dimethyl-5,7-dioxo-6^1,6^2,6^3,6^4,6^5,6^6-hexahydro-1^1H-8-oxa-2(4,2)-thiazola-1(5,3)-indola-6(1,3)-pyridazinacycloundecaphane-4-yl)-2-methyl-3-(pyrimidin-4-yl)cyclopropane-1-carboxamide]
